Test results: US20260130888A1, “NOVEL THERAPEUTIC MOLECULE” (Pillai Universal LLC, priority 2022, published 2026)
Entries after “also recorded” stand apart in the source; their conditions may differ.

Experiments:
[1] = tested on: HFD+STZ type II diabetic mice; experiment: Effect on body weight, plasma glucose, total cholesterol and triglyceride levels of HFD+STZ type II diabetic mice; assay type: in vivo, C57BL/6J mice
Excerpt: Effect of Compound I on body weight, Total cholesterol, Plasma glucose, and triglyceride levels of HFD+STZ type II diabetic mice:
Eight weeks of dietary manipulation with high-fat diet increased the body weight in all the groups when compared to NPD group.
Type 2 diabetes mellitus and its related complications have arisen as serious health problems in modern societies. The cutting edge technology of drug development is to identify small molecule drugs helpful in controlling both diabetes and obesity. In this study, we assess the impact of a small molecule Compound I having insulin mimicking effect by inhibiting PTP-1B and activating IR-β phosphorylation in insulin-sensitive tissues by in vivo animal model. […] The induction of diabetes mellitus in mice confirmed by elevated levels of fasting plasma glucose. Plasma glucose level measured in normal and experimental mice.

db/db diabetic mice [2] = experiment: Effect on body weight, total cholesterol, plasma glucose and triglyceride levels of db/db diabetic mice; assay type: in vivo
Excerpt: Effect of Compound I on Body Weight Total Cholesterol, Plasma Glucose, and Triglyceride Levels of db/db Diabetic Mice
It is well-known that there is an increase of serum lipid concentration in people with diabetes.
db/db mouse is a genetic obesity diabetic animal model produced with the aid of the shortage of leptin receptor. The pathogenesis features of T2DM in db/db mice was similar to those in human type 2 diabetes, including hyperglycemia, obesity, and insulin resistance. Current years, db/db mice have been broadly used in animal experiments to set up the T2DM model. We have investigated whether Compound I include IR activators with insulin-mimetic and insulin-sensitizing activity by means of evaluating their effects on IR signaling. Compound I (100 mg/kg and 200 mg/kg b.wt) treatment for 7 days reduced food consumption and body weight in the db/db mice, an inherited obese animal model (FIG. 5, a-d). […] Based on these findings, further studies on Compound I have been carried out in the subsequent experiments to explore their inhibitory activity against PTP1B.

[3] = tested on: IRS-1, IRS-2, PI3K, Glut4 and Akt; experiment: Expression of diabetic-associated gene transcripts in streptozotocin-induced diabetic mice, semiquantitative RT-PCR; assay type: in vivo
Method: One of the mechanisms which can stimulate or enhance glucose uptake in cells is the elevated translocation of glucose transporter 4 (GLUT 4) from the intracellular site to the plasma membrane. […] The expression of diabetic-related, gluconeogenic and glycolytic genes, in streptozotocin-induced diabetic mice, were treated with Compound I was determined using semiquantitative RT-PCR. As the internal control, GAPDH the band density of each target gene normalized to the band density of GAPDH of the sample.

PTP1B [4] = experiment: Insulin mimicking effect in liver and skeletal muscle of HFD+STZ mice, PCR analysis: PTP1B; assay type: in vivo; details: dose-dependent, p<0.05
Excerpt: (§1) Insulin Mimicking Effect of Compound I in Liver and Skeletal Muscle of HFD+STZ Type II Diabetic Mice
(§2) In the insulin signaling pathway, protein tyrosine phosphatase 1B (PTP1B) considered playing a vital role in the intracellular signal transduction process and metabolism. There is compelling confirmation that PTP1B, is principally responsible for the dephosphorylation of insulin receptor (IR-β), as a result, leading to the block of insulin signaling transduction pathway. […] (FIG. 7, a & b)

insulin receptor (IR-β) = experiment: Insulin mimicking effect in liver and skeletal muscle of HFD+STZ mice, PCR analysis: IR-β; assay type: in vivo; details: dose-dependent
Excerpt: as §1, §2

inflammatory parameters = experiment: Inflammatory mediators in HFD+STZ type II diabetic mice; assay type: in vivo
Excerpt: FIG. 7 depicts the Insulin mimicking effect of compound I in Liver and skeletal muscle of HFD+STZ type II diabetic mice • a. Insulin Mimetic Effect • b. Inflammatory mediators
as §2

[5] = tested on: IRS-1, IRS-2, PI3K, Glut4, Akt; experiment: Liver insulin resistance in C57BL/6J-db/db mice: expression of insulin signaling genes; assay type: in vivo; details: vs C57BL/6J-db/db control group, p<0.05
Excerpt: Effect of Compound I on Liver Insulin Resistance in the C57BL/6J-db/Dbmice
The expression of insulin signaling genes such as IRS-1, IRS-2, PI3K, Glut4, Akt in the livers of the db/db mice reduced noticeably when compared with that of the normal mice. There was a significant enhance within the activation of all the examined genes in the C57BL/6J-db/db treatment group compared to that of normal control group FIG. 8.

PTP1B [6] = experiment: Insulin mimicking effect in skeletal muscle and liver of db/db mice, Western blot and PCR: PTP1B; assay type: in vivo; details: vs control group, p<0.01
Method: (§3) Insulin Mimicking Effect of COMPOUND I in Skeletal Muscle and Liver of db/db Mice
(§4) To further utilize the insulin mimetic effect of Compound I, the key proteins in PTP1B and PI3K/Akt signaling pathway were evaluated using Western blot and PCR after treatment with Compound I. Western blotting and PCR analysis have been carried out to verify the expression of PTP1B and IR β in skeletal muscle and liver to establish the inhibition effect of Compound I towards PTP1B.

p-IRβ = biological target: T1, p-IRβ (Mus musculus, UniProt P15208); experiment: Insulin mimicking effect in skeletal muscle and liver of db/db mice, Western blot and PCR: p-IRβ; assay type: in vivo; details: vs non-treated control group
T1 construct: from tissue; host or cells: skeletal muscle and liver of db/db mice
T1 sequence (P15208 753-1372 limits assumed): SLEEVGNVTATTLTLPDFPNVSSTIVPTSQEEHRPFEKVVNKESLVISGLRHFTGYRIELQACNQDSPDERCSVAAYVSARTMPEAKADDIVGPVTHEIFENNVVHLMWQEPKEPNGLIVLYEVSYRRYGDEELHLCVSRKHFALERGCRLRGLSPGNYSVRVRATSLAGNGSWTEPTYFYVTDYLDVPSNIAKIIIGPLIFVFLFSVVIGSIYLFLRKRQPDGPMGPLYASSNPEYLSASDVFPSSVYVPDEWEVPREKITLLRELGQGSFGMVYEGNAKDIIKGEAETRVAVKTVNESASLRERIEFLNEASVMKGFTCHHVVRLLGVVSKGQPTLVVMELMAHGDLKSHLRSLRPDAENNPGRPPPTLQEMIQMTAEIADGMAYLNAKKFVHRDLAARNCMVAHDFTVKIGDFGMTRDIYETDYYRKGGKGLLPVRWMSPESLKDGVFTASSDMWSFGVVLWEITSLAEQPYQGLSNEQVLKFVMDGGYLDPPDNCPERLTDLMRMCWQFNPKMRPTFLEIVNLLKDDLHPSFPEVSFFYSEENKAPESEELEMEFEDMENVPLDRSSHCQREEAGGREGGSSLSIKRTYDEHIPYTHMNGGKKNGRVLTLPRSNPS
T1 sequence (P15208 28-748 partner limits assumed): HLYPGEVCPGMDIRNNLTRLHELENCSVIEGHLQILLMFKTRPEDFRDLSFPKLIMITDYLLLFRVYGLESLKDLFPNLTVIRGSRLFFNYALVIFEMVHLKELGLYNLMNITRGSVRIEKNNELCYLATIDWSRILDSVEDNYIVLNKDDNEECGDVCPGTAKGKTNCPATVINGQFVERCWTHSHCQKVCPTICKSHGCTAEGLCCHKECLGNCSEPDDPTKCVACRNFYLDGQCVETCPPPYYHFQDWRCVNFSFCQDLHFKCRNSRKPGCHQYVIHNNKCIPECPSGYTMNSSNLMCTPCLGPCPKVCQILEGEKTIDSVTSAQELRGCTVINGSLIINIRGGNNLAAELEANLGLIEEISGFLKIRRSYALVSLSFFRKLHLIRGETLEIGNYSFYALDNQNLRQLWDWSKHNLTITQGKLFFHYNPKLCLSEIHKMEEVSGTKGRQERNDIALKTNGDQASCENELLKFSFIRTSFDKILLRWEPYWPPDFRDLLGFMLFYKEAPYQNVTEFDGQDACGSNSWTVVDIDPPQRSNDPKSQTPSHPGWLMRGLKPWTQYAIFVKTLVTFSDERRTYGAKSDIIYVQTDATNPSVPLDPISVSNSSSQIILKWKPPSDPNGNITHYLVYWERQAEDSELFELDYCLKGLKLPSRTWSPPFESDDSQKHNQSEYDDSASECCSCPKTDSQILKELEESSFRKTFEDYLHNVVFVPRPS
Method: as §3, §4

p-IRβ, IR = experiment: Phosphorylated insulin-signaling molecules in muscles and liver of diabetic mice (discussion); assay type: in vivo; details: oral administration, dose-dependent
Excerpt: (§5) Next, we examine the effect of COMPOUND Ion PTP-1B inhibition and activation of IR-β phosphorylation by PCR and Western blotting studies. In the current study, we used the type 2 diabetic C57BL/6J STZ, HFD+STZ C57BL/6J, db/db mouse model to assess the antihyperglycemic property. […] As shown in FIGS. 6&8, There is a diminish in the tyrosine phosphorylation levels of the IR β- in the skeletal muscle and liver of diabetic mice, involving the PTP1B function in all the diabetic-treated mice. According to Tagami et al. expression of PTP1B activity up regulated in the skeletal muscle and adipose tissue of Otsuka Long-Evans Tokush-in fat rats. Haj et al. established that the hepatic-specific over expression of PTP1B confirmed insulin resistance no longer merely in the liver but also in other tissues in PTP1B knockout mice. For that reason, PTP1B plays a main function in diabetic mice. When PTP1B gets activated, the insulin signaling transduction pathway blocked, and the level of plasma glucose is disturbed, ensuing in the increased plasma glucose level. […] The increased in the tyrosine phosphorylation expression level of the IR β-subunit in the skeletal muscle and liver of Compound I treated diabetic mice point out the enhancement of insulin sensitivity in the entire animal model tested.

PI3K, GLUT4 = experiment: PI3K and GLUT4 gene expression in diabetic mice (discussion); assay type: in vivo
Excerpt: as §5, with “tested. […]” for “tested.”

db/db diabetic mice [7] = experiment: Effect on body weight, total cholesterol, plasma glucose and triglyceride levels of db/db diabetic mice; assay type: in vivo; details: 100 and 200 mg/kg b.wt, 2 weeks, vs control mice
[8] = 14 days after treatment, dose-dependent, vs control mice
[9] = C57BL/6J mice fed high-fat diets, 7 days after injection, vs control mice
[10] = low and high doses (100 and 200 mg/kg), vs diabetic group
[11] = 100 and 200 mg/kg b.wt, treatment for 7 days
[12] = 7 days after treatment, vs control mice
[13] = Compound I, dose-dependent, high dose better (P<0.05)
[14] = Metformin 250 mg/kg b.wt, vs diabetic group
[15] = metformin-treated group vs model group

Compound: COc1cc(CO)cc2c1[nH]c1c(/C(C)=C/C(=O)O)cccc12 [Compound I, (2E)-3-[6-(hydroxymethyl)-8-methoxy-9H carbazol-1-yl]but-2-enoic acid]
- food intake ([1]; 100 and 200 mg/kg b.wt, C57BL/6J mice fed high-fat diets for 7 days, vs control mice): extensively decreased
- Fasting plasma glucose [1, 8]: markedly diminished
- insulin levels [1, 8]: markedly diminished; also recorded: markedly reduced
- triglyceride levels [1, 8]: markedly diminished; also recorded: markedly reduced
- Fasting plasma glucose levels [1, 9]: markedly diminished
- insulin levels [1, 9]: markedly diminished
- triglyceride levels [1, 9]: markedly diminished
- body weights ([1]; C57BL/6J mice fed high-fat diets, 7 days, vs normal control mice): widely dropped
- food intake ([1]; Compound I 100 mg/kg and 200 mg/kg b.wt, 14 days, C57BL/6J mice fed high-fat diets, vs control mice, p<0.001): drastically lower
- body weights ([1]; Compound I 100 and 200 mg/kg b.wt, 14 days, vs control mice): significantly reduce
- decrease in Plasma glucose levels [1, 10]: approximately two fold
- decrease in triglycerides levels [1, 10]: approximately two fold
- total cholesterol levels reduced [1, 10]: 2.5 fold
- plasma glucose level ([1]; oral 100 mg/kg and 200 mg/kg b.wt, STZ-treated diabetic mice): highly significant effect by reducing
- free fatty acids levels (db/db diabetic mice [2]; 100 and 200 mg/kg b.wt, 7 days, vs normal control): reduced
- body weight (db/db diabetic mice [2]; [11]): reduced
- food consumption (db/db diabetic mice [2]; [11]): reduced
- Fasting plasma glucose (db/db diabetic mice [2]; [12]): markedly lower; also recorded: reduced
- insulin (db/db diabetic mice [2]; [12]): markedly lower; also recorded: reduced
- triglyceride levels (db/db diabetic mice [2]; [12]): markedly lower; also recorded: reduced
- total cholesterol concentration (db/db diabetic mice [2]; [13]): lowered
- triglycerides concentration (db/db diabetic mice [2]; [13]): lowered
- expression of all the gene transcripts, fold increased expression ([3]; Compound I 100 mg/kg, Liver tissue): ~2.5 fold
- expression of all the gene transcripts, fold change ([3]; Compound I 100 mg/kg, skeletal muscle): ~3.5 fold change
- expression of PTP1B (PTP1B [4]): significantly decreased
- IR-β levels (insulin receptor (IR-β)): concomitant increase
- expression of inflammatory parameters (inflammatory parameters): significantly reduced
- expression of all genes involved in insulin signaling pathway [5]: notably enhanced
- PTP1B expression (PTP1B [6]): downregulated substantially
- p-IRβ (p-IRβ): significantly increased
- expression level of proteins (p-IRβ, IR) (p-IRβ, IR): significantly augmented
- PI3K and GLUT4 expression levels (PI3K, GLUT4; in contrast to diabetic mice): enhanced significantly
- GLUT4 mRNA expression (PI3K, GLUT4; vs normal control group): extremely expressed
- body weights (db/db diabetic mice [7]): significantly decreased
- food intake (db/db diabetic mice [7]; p>0.05): extensively lower

Compound: CN(C)C(=N)N=C(N)N [Metformin, reference compound]
- glucose [1, 14]: markedly reduced
- total cholesterol [1, 14]: markedly reduced
- triglycerides [1, 14]: markedly reduced
- serum total cholesterol levels (db/db diabetic mice [2]; [15]): lower than in the model group
- serum triglyceride levels (db/db diabetic mice [2]; [15]): lower than in the model group
- levels of insulin-signaling gene expression ([3]; Metformin-treated groups, skeletal muscle and liver tissue, p<0.05): increased levels
